Results published in patent US9475765B2, “Polymorphs of N- (2 -methoxybenzoyl) -4- [ (methylaminocarbonyl) amino] benzenesulfonamide” (Syngenta Limited, priority 2012, dated 2016).

Assay: Stability of polymorphs: slurry of Form 1, Form 2 and Form 3 in ethanol, crystal form examined by powder X-ray diffraction
Format: physicochemical
Description: Powder X-ray diffraction analysis of solid material was carried out using the Briker D8 powder diffractometer. Samples were mounted in Perspex sample holders and the samples flattened. The sample holder was rotated and X-rays were collected from 4° to 34° 2-theta, with a scan time of 25 to 30 minutes depending on the pattern intensity. Approximately 0.1 g each of Form 1, Form 2 and Form 3 were added to 10 ml of ethanol at 50° C. and 60° C. until there were solids out of solution (a slurry). The temperature was maintained with stirring and the crystal form examined after 2 and 8 days.

[1] = about 0.1 g each of Form 1, Form 2 and Form 3 in 10 ml ethanol, stirred slurry at 50° C. and 60° C.

Structure (SMILES) | crystal form present in slurry after 2 days [1] | crystal form present in slurry after 8 days (about 0.1 g each of Form 1, Form 2 and Form 3 in 10 ml ethanol, stirred slurry at 50° C. and 60° C., 8 days in total) | stability relative to the other polymorphs (general statement in the description, Form 2 compared with Form 1 and Form 3)
CNC(=O)Nc1ccc(S(=O)(=O)NC(=O)c2ccccc2OC)cc1 [Form 1, N-(2-methoxybenzoyl)-4-[(methylaminocarbonyl)amino]benzenesulfonamide] | no evidence of Form 1 | – | –
CNC(=O)Nc1ccc(S(=O)(=O)NC(=O)c2ccccc2OC)cc1 [Form 2, N-(2-methoxybenzoyl)-4-[(methylaminocarbonyl)amino]benzenesulfonamide] | still present | complete conversion to Form 2 | stable polymorph
CNC(=O)Nc1ccc(S(=O)(=O)NC(=O)c2ccccc2OC)cc1 [Form 3, N-(2-methoxybenzoyl)-4-[(methylaminocarbonyl)amino]benzenesulfonamide] | still present | – | –
